The values that follow come from patent publication US9616245B2, “Method of treating cells with drug and radiation according to proton density” (priority 2009, dated 2017).

Data set [1] concerns the target inducible nitric oxide synthase (iNOS) (Homo sapiens, UniProt P35228). Conditions: cited from earlier work.
Another data set relates to cycloxygenase. The following applies: cited from earlier work.
The test system of data set [2] is peripheral blood monocytes and alveolar macrophages. Conditions: cited from earlier work.
Data set [3] has as its system head and neck tumor cell lines. The following applies: Clin. Cancer Res. 2005; 11(19); cited from earlier work.
The subject of another data set is protein kinase C (PKC). The following applies: cited from earlier work.
The next data set has as its system lipoxygenase. The following applies: cited from earlier work.
The next data set deals with cancer cells. The following applies: cited from earlier work.
The subject of another data set is IkB kinase. The following applies: cited from earlier work.

SMILES strings stand for the structures. Read-outs that look alike come from different tables or passages of the source.

Chain of inducible nitric oxide synthase (iNOS) (P35228 whole entry, species assumed): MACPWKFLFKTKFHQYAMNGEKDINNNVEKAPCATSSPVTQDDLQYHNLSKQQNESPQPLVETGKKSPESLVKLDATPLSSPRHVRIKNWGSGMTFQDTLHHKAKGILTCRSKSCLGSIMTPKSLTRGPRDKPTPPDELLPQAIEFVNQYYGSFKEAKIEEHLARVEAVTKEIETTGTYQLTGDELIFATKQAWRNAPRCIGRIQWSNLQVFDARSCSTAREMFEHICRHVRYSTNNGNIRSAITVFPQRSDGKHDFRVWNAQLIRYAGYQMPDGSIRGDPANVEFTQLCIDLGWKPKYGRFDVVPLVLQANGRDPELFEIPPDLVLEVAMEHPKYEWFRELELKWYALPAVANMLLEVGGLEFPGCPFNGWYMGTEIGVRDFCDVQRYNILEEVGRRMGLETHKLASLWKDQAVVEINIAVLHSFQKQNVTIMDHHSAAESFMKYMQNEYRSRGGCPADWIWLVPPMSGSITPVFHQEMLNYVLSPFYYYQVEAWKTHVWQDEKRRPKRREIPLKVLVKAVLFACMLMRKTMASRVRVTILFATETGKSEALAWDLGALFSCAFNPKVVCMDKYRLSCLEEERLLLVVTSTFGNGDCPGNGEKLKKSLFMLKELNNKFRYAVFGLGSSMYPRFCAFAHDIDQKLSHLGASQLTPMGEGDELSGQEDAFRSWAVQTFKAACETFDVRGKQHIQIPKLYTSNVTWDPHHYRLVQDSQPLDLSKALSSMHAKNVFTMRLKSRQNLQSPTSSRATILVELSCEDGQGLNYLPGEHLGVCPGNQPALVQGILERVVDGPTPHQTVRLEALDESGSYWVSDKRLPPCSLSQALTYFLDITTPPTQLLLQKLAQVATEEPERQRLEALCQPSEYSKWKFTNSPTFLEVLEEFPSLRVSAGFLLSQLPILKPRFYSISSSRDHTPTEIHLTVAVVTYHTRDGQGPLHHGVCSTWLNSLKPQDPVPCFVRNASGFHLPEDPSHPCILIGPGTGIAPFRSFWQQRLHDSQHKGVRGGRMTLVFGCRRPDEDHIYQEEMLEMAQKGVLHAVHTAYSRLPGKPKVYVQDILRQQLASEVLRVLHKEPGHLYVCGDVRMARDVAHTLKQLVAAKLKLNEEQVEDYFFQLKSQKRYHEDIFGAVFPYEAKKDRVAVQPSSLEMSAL
Experimental for recurrent Meduloblastoma: They also had high-grade fever. The chemotherapy was stopped for a week and given a blood transfusion and stabilized the patient. In the second leg the patient was then put on FORN mediated metronomic chemotherapy upon the request of their parent.
During the FORN break period, as advised by the patient's treating oncologist, the patient continued the chemotherapy without FORN. Thus during the third leg the patient took chemotherapy without FORN. […] Another transfusion of blood was conducted.
During the third leg of the trial, the cytotoxic drugs were continued to be administered, without the use of FORN.

As for `COc1cc(/C=C/C(=O)CC(=O)/C=C/c2ccc(O)c(OC)c2)ccc1O` [Curcumin], the “inhibition of iNOS” value in data set [1] was “inhibits”. Also, the inhibition of cycloxygenase entry in the data set with cycloxygenase is “inhibits”. In addition, the “production of inflammatory cytokines” value in data set [2] is given as “inhibit production”. Further, in [3], the “growth of tumor cell lines” value is reported as “suppresses growth”. Further, the “inhibition of phorbol ester induced PKC activity” value with protein kinase C (PKC) is “inhibits”. In addition, in the data set with lipoxygenase, the inhibition of lipoxygenase result is “inhibits”. The “apoptosis (programmed cell death)” value with cancer cells is “induce apoptosis”. For the same compound, the “inhibition of IkB kinase” value in the data set on IkB kinase is given as “potent inhibitor”.

For `O=P1(N(CCCl)CCCl)NCCCO1` (stereo not shown) [Cyclophosphamide], the “bone marrow / blood counts” value in the data set on recurrent Meduloblastoma (first leg, without FORN, metronomic mode with three anti angiogenic drugs, after 2 weeks) is reported as “severe bone marrow depression”.

In the case of `COc1cc([C@@H]2c3cc4c(cc3[C@@H](O[C@@H]3O[C@@H]5CO[C@@H](C)O[C@H]5[C@H](O)[C@H]3O)[C@H]3COC(=O)[C@H]23)OCO4)cc(OC)c1O` [VP 16, Etoposide], the “bone marrow / blood counts” value in the data set on recurrent Meduloblastoma (human, in vivo) is “severe bone marrow depression”.
